System: U2OS
Test: Incucyte cell viability with U2OS; note: filed as whole numbers so only -1 and 0 and 1 occur
Format: toxicity, cell-based
Conditions: human, 10 µM, compound concentration 10 uM
[1] = 0 h, replicate number 1, timepoint 0 hours
[2] = 12 h, replicate number 2, timepoint 12 hours
[3] = 18 h, replicate number 1, timepoint 18 hours
[4] = 18 h, replicate number 2, timepoint 18 hours
[5] = 24 h, replicate number 1, timepoint 24 hours
[6] = 24 h, replicate number 2, timepoint 24 hours
[7] = 6 h, replicate number 1, timepoint 6 hours
[8] = 12 h, replicate number 1, timepoint 12 hours
[9] = 0 h, replicate number 2, timepoint 0 hours
[10] = 6 h, replicate number 2, timepoint 6 hours

Structure (SMILES)	Growth Rate [1]	Growth Rate [2]	Growth Rate [3]	Growth Rate [4]	Growth Rate [5]	Growth Rate [6]	Growth Rate [7]	Growth Rate [8]	Growth Rate [9]	Growth Rate [10]
CCCn1c(=O)c2[nH]c(-c3cnn(Cc4cccc(C(F)(F)F)c4)c3)nc2n(CC)c1=O [GS 6201]	0	1	1	0	1	0	–	–	–	–
CCn1cc(-c2ccnc3[nH]c(-c4cccc(CN(C)C)c4)cc23)c(-c2ccc(NC(=O)N(C)C)cc2)n1 [GSK-1070916]	1	–	0	–	0	–	0	0	–	–
CCN1CCN(c2ccc(Nc3cc(N(C)C(=O)Nc4c(Cl)c(OC)cc(OC)c4Cl)ncn3)cc2)CC1 [INFIGRATINIB]	–	–	0	–	0	–	1	0	0	–
CN1CCC(=C2c3ccccc3CC(=O)c3sccc32)CC1.O=C(O)/C=C/C(=O)O [KETOTIFEN FUMARATE]	1	–	1	–	1	0	–	1	–	0
COc1ccc(-c2ccc3c(N4CCOCC4)nc(N4C[C@@H](C)O[C@@H](C)C4)nc3n2)cc1CO [Ku-0063794]	0	–	0	–	0	–	1	1	–	–
CN(C)C(=O)C(CCN1CCC(O)(c2ccc(Cl)cc2)CC1)(c1ccccc1)c1ccccc1.Cl [LOPERAMIDE HYDROCHLORIDE]	–	–	0	–	0	–	0	0	–	–
C[C@H]1Oc2cc(cnc2N)-c2c(nn(C)c2C#N)CN(C)C(=O)c2ccc(F)cc21 [LORLATINIB]	–	–	1	–	1	–	1	1	1	–
O=C1NC(=O)C(c2cnc3ccccn23)=C1c1cn2c3c(cc(F)cc13)CN(C(=O)N1CCCCC1)CC2 [LY-2090314]	0	–	0	–	0	–	0	0	–	–
CCOc1cc2ncc(C#N)c(Nc3ccc(OCc4ccccn4)c(Cl)c3)c2cc1NC(=O)/C=C/CN(C)C [NERATINIB]	–	–	0	–	0	–	0	0	0	1
Cc1cn(-c2cc(NC(=O)c3ccc(C)c(Nc4nccc(-c5cccnc5)n4)c3)cc(C(F)(F)F)c2)cn1 [NILOTINIB]	–	–	0	1	0	1	0	0	0	–
COc1cccc2cc(-c3nc([C@H]4CC[C@H](C(=O)O)CC4)n4ncnc(N)c34)[nH]c12 [OSI-027]	1	–	0	1	0	–	1	1	–	–
CCCS(=O)(=O)Nc1ccc(F)c(C(=O)c2c[nH]c3ncc(Cl)cc23)c1F [PLX-4720]	0	1	0	–	0	–	1	0	–	–
CN1CCN(C(=O)C(C)(C)c2ccc(C(=O)Nc3cn4cc(-c5cc(C(C)(C)C)cc(C(C)(C)C)c5)ccc4n3)cc2)CC1 [T3-CLK-N]	–	–	0	1	0	1	–	1	0	–
CN1CCN(C(=O)C(C)(C)c2ccc(C(=O)Nc3cn4cc(-c5ccncc5)ccc4n3)cc2)CC1 [T3-CLK]	–	1	0	1	0	1	1	0	0	–
O=C(Cc1ccc(-c2ccc(OCCN3CCOCC3)cc2)cn1)NCc1ccccc1 [TIRBANIBULIN]	–	–	0	–	0	–	1	0	0	–
Cn1nc(C(F)(F)F)cc1-c1cnc(N2CCc3cc(S(=O)(=O)Nc4c(F)cc(Cl)cc4F)cc(N4CCCC4=O)c32)nc1 [TP-020]	–	0	1	0	1	0	0	1	1	–
